Source: article PMC5261566, “The AMPK Activator A769662 Blocks Voltage-Gated Sodium Channels: Discovery of a Novel Pharmacophore with Potential Utility for Analgesic Development” (PLoS ONE, 2017)

Target: T1, Nav1.7 (hNav1.7) (Homo sapiens, UniProt Q15858, F1748A/Y1755A)
T1 construct: gene SCN9A; F1737A/Y1744A mutant hNav1.7 transiently expressed in HEK293 cells
Assay: whole-cell patch clamp, % reduction of peak current at […]
Format: cell-based
Conditions: read-out: % block at 200 μM

T1 sequence (Q15858 whole entry F1748A/Y1755A): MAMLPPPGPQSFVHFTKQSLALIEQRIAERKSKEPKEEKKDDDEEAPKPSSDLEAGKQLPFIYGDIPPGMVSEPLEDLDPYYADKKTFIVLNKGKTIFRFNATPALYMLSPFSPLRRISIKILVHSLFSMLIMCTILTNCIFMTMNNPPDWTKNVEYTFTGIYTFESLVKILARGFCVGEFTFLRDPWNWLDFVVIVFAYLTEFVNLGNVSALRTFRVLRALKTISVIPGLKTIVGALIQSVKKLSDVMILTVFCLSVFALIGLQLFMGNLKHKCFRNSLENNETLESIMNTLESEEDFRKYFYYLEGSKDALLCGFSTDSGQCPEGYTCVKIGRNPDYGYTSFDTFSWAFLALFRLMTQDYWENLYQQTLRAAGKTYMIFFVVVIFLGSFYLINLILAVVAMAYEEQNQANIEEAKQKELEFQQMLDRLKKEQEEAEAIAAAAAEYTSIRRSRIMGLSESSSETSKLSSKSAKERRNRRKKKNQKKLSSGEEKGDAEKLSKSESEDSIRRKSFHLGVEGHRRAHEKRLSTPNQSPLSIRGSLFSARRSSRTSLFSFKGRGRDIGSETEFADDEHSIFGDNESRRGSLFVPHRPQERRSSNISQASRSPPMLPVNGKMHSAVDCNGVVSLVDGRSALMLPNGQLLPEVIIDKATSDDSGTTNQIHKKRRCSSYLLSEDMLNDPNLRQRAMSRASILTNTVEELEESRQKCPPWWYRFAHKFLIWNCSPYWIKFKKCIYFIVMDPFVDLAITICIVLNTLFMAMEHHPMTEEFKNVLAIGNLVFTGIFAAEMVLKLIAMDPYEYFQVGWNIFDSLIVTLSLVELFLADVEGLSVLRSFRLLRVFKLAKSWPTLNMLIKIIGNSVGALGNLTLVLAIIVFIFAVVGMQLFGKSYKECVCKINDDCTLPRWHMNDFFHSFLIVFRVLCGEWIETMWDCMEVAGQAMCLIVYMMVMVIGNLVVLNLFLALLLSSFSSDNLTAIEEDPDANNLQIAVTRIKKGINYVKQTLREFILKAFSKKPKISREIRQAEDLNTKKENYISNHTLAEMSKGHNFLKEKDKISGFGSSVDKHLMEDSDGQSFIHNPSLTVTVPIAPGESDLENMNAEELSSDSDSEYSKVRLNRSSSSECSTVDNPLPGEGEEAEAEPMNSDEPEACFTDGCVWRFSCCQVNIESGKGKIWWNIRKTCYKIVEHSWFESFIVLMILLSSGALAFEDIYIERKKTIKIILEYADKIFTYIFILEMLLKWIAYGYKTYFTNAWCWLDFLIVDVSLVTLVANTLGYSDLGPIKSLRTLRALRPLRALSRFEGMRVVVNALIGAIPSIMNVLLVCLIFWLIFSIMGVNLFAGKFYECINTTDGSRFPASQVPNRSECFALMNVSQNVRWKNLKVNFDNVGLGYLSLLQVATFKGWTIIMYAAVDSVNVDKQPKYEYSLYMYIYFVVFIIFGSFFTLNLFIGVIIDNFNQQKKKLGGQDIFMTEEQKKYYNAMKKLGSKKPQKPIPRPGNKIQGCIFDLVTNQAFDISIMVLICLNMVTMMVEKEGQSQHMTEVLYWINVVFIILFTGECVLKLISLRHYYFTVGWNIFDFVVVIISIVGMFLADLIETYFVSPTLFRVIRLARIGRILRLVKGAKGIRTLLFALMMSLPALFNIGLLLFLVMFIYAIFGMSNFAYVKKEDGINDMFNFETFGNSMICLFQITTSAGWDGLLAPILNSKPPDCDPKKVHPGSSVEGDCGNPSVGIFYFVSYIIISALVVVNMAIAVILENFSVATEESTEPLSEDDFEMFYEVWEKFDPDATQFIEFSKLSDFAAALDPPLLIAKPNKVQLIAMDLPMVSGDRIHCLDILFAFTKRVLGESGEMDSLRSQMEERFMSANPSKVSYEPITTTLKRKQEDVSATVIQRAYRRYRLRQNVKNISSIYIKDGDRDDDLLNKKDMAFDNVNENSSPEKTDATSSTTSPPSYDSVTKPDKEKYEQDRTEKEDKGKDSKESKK

inhibition at 200 µM: 38%
SMILES: N#Cc1c(O)c2c(-c3ccc(-c4ccccc4O)cc3)csc2[nH]c1=O [A769662]
